Tested on: human umbilical vein endothelial cells (HUVEC)
Assay: Cell proliferation assay with vWF HBD, HUVEC
Type: cell-based
Conditions: vWF HBD coated plates, 72 hrs
Protocol: Cell proliferation assays were performed as previously reported1. Briefly, human lung fibroblasts (Lonza) were cultured using FGM-2 medium (Lonza) (1000 cells/well) or human umbilical vein endothelial cells (HUVEC, Lonza) were cultured using EGM-2 medium (Lonza) (1000 cells/well) on 1 μg/mL vWF HBD pre-coated 96-well plates (Tissue culture treated, Falcon). Cell numbers were quantified after 72 hrs using a CyQUANT assay (Invitrogen).

YIGLKDRKRPSELRRIASQVKYAC [vWF HBD] was tested, and the endothelial proliferation was “did not affect endothelial proliferation”.

Reference: patent US11732029B2, “Methods and compositions for the treatment of wounds” (The University of Chicago, priority 2017, dated 2023)
